For 27 compounds, IC50 results are on record in patent US10568879B2 (GALAPAGOS NV, priority 2015, dated 2020).

T1 sequence (Q9NQS5 whole entry): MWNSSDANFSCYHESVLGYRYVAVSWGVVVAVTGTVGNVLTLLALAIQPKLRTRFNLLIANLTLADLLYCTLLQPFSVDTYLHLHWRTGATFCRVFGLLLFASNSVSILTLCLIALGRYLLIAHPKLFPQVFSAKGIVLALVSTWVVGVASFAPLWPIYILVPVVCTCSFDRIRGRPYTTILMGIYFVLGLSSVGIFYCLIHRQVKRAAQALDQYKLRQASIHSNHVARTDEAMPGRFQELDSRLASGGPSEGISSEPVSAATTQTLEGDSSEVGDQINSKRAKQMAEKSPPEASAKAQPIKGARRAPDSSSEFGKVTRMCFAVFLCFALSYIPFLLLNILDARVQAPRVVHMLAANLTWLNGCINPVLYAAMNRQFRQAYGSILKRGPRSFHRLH

The assay addresses T1, GPR84 (Homo sapiens, UniProt Q9NQS5).
T1 construct: expressed in transfected cells
The assay can be described thus: GPR84 [35S]GTPγS binding assay. It is filed as biochemical. The settings on record: 3,3′-diindolylmethane at EC80; membranes from stable cell line over expressing GPR84. The procedure: The following assay can be used for determination of GPR84 activation. The [^35S]GTPγS binding assay measures the level of G protein activation following agonist occupation of a GPCR, by determining the binding of the non-hydrolysable analog [^35S]GTPγS to Gα subunits.
The assay is performed in a 96-well plate where the following reagents are added. First 50 μL compound is added into the assay plate, followed by addition of 20 μL 3,3′-diindolylmethane at EC80 concentration (concentration which gives 80% of the activity of GPR84). Then, 30 μL of a mixture consisting of membranes-GTPγS-SpA beads is added [mixture consists of 20 μg/well membranes derived from stable cell line over expressing GPR84 (membranes are pre-incubated with 0.1 μM GDP for 15 min at 4° C.), 0.1 nM [^35S]GTPγS (Perkin Elmer, NEG030) and 0.5 mg/well PVT-WGA SpA beads (Perkin Elmer, RPNQ0001)]. All components are diluted in assay buffer containing 20 mM Tris pH 7.5; 5 mM MgCl2; 250 mM NaCl; 0.05% BSA; 75 μg/mL saponin. After an incubation of 90 min at room temperature, 20 μL CsCl2 0.8 M (MP Biomedicals, 02150589) is added, followed by centrifugation at 2000 rpm during 20 min. Plates are read on a topcount reader (perkin elmer) immediately after centrifugation (readout time, 1 min/well).
(GTPγS is a poorly hydrolysed GTP analogue; its binding reports G protein activation.)
`Cc1c2n(c(OC[C@@H]3COCCO3)cc1=O)CCc1cc(N3CC(C(F)(F)F)C3)ccc1-2` [Compound 132, 4-[[(2S)-1,4-dioxan-2-yl]methoxy]-1-methyl-9-[3-(trifluoromethyl)azetidin-1-yl]-6,7-dihydrobenzo[a]quinolizin-2-one] registered an IC50 of 0.01 to 100 nM. In turn, `Cc1c2n(c(OC[C@@H]3COCCO3)cc1=O)CCc1cc(N3CC=C(C(F)(F)F)CC3)ccc1-2` [Compound 133, 4-[[(2S)-1,4-dioxan-2-yl]methoxy]-1-methyl-9-[4-(trifluoromethyl)-3,6-dihydro-2H-pyridin-1-yl]-6,7-dihydrobenzo[a]quinolizin-2-one] came in with a concentration for half-maximal inhibition (IC50) of 0.01 to 100 nM. With `Cc1c2n(c(OC[C@@H]3COCCO3)cc1=O)CCc1cc(N3CCC[C@H]3C)ccc1-2` [Compound 134, 4-[[(2S)-1,4-dioxan-2-yl]methoxy]-1-methyl-9-[(2R)-2-methylpyrrolidin-1-yl]-6,7-dihydrobenzo[a]quinolizin-2-one], the IC50 is 0.01 to 100 nM. Compound `Cc1c2n(c(OC[C@@H]3COCCO3)cc1=O)CCc1cc(N3CCCC(F)C3)ccc1-2` (stereo partly drawn) [Compound 135, 4-[[(2S)-1,4-dioxan-2-yl]methoxy]-9-(3-fluoro-1-piperidyl)-1-methyl-6,7-dihydrobenzo[a]quinolizin-2-one] came in with an IC50 of 0.01 to 100 nM. The compound `Cc1c2n(c(OC[C@@H]3COCCO3)cc1=O)CCc1cc(-n3c4ccccc4c4ccccc43)ccc1-2` [Compound 136, 9-carbazol-9-yl-4-[[(2S)-1,4-dioxan-2-yl]methoxy]-1-methyl-6,7-dihydrobenzo[a]quinolizin-2-one] showed an IC50 of 0.01 to 100 nM. Under `Cc1c2n(c(OC[C@@H]3COCCO3)cc1=O)CCc1cc(N3CC(C)CC(C)C3)ccc1-2` (stereo partly drawn) [Compound 137, 9-(3,5-dimethyl-1-piperidyl)-4-[[(2S)-1,4-dioxan-2-yl]methoxy]-1-methyl-6,7-dihydrobenzo[a]quinolizin-2-one] stands 0.01 to 100 nM; under `Cc1c2n(c(OC[C@@H]3COCCO3)cc1=O)CCc1cc(N3CCC(C)(C)C3)ccc1-2` [Compound 138, 9-(3,3-dimethylpyrrolidin-1-yl)-4-[[(2S)-1,4-dioxan-2-yl]methoxy]-1-methyl-6,7-dihydrobenzo[a]quinolizin-2-one], 0.01 to 100 nM. In turn, `Cc1c2n(c(OC[C@@H]3COCCO3)cc1=O)CCc1cc(N3CCC(C)(C)CC3)ccc1-2` [Compound 139, 9-(4,4-dimethyl-1-piperidyl)-4-[[(2S)-1,4-dioxan-2-yl]methoxy]-1-methyl-6,7-dihydrobenzo[a]quinolizin-2-one] registered an IC50 of 0.01 to 100 nM. Turning to `Cc1c2n(c(OC[C@@H]3COCCO3)cc1=O)CCc1cc(N3CCC(C(F)(F)F)CC3)ccc1-2` [Compound 140, 4-[[(2S)-1,4-dioxan-2-yl]methoxy]-1-methyl-9-[4-(trifluoromethyl)-1-piperidyl]-6,7-dihydrobenzo[a]quinolizin-2-one], the IC50 was in the range of 0.01 to 100 nM. In turn, `Cc1c2n(c(OC[C@@H]3COCCO3)cc1=O)CCc1cc(N3CCC(C)CC3)ccc1-2` [Compound 141, 4-[[(2S)-1,4-dioxan-2-yl]methoxy]-1-methyl-9-(4-methyl-1-piperidyl)-6,7-dihydrobenzo[a]quinolizin-2-one] registered an IC50 of 0.01 to 100 nM.

Regarding `Cc1c2n(c(OC[C@@H]3COCCO3)cc1=O)CCc1cc(NCC(F)(F)F)ccc1-2` [Compound 142, 4-[[(2S)-1,4-dioxan-2-yl]methoxy]-1-methyl-9-(2,2,2-trifluoroethylamino)-6,7-dihydrobenzo[a]quinolizin-2-one], the IC50 was in the range of 0.01 to 100 nM. The same measure for `Cc1c2n(c(OC[C@@H]3COCCO3)cc1=O)CCc1cc(N3CCCCC3C)ccc1-2` (stereo partly drawn) [Compound 143, 4-[[(2S)-1,4-dioxan-2-yl]methoxy]-1-methyl-9-(2-methyl-1-piperidyl)-6,7-dihydrobenzo[a]quinolizin-2-one]: 0.01 to 100 nM. `Cc1c2n(c(OC[C@@H]3COCCO3)cc1=O)CCc1cc(OC3CCN(C(=O)C4CC4)C3)ccc1-2` (stereo partly drawn) [Compound 144, 9-[1-(cyclopropanecarbonyl)pyrrolidin-3-yl]oxy-4-[[(2S)-1,4-dioxan-2-yl]methoxy]-1-methyl-6,7-dihydrobenzo[a]quinolizin-2-one] had an IC50 of 100 to 500 nM. Take `CCOC(=O)N1CCC(Oc2ccc3c(c2)CCn2c(OC[C@@H]4COCCO4)cc(=O)c(C)c2-3)C1` (stereo partly drawn) [Compound 145, ethyl 3-[[4-[[(2S)-1,4-dioxan-2-yl]methoxy]-1-methyl-2-oxo-6,7-dihydrobenzo[a]quinolizin-9-yl]oxy]pyrrolidine-1-carboxylate]: the IC50 lay in the range of 0.01 to 100 nM. `Cc1c2n(c(OC[C@@H]3COCCO3)cc1=O)CCc1cc(C3CN(C(=O)C4CC4)C3)ccc1-2` [Compound 146, 9-[1-(cyclopropanecarbonyl)azetidin-3-yl]-4-[[(2S)-1,4-dioxan-2-yl]methoxy]-1-methyl-6,7-dihydrobenzo[a]quinolizin-2-one] registered an IC50 of 500 to 1000 nM. In turn, `CCOC(=O)N1CC(c2ccc3c(c2)CCn2c(OC[C@@H]4COCCO4)cc(=O)c(C)c2-3)C1` [Compound 147, ethyl 3-[4-[[(2S)-1,4-dioxan-2-yl]methoxy]-1-methyl-2-oxo-6,7-dihydrobenzo[a]quinolizin-9-yl]azetidine-1-carboxylate] showed an IC50 of 0.01 to 100 nM. With `Cc1c2n(c(OC[C@@H]3COCCO3)cc1=O)CCc1cc(C3CN(C(=O)N(C)C)C3)ccc1-2` [Compound 148, 3-[4-[[(2S)-1,4-dioxan-2-yl]methoxy]-1-methyl-2-oxo-6,7-dihydrobenzo[a]quinolizin-9-yl]-N,N-dimethyl-azetidine-1-carboxamide], the IC50 fell in the range of 500 to 1000 nM. `Cc1c2n(c(OC[C@@H]3COCCO3)cc1=O)CCc1cc(C3CN(C(=O)NC(C)C)C3)ccc1-2` [Compound 149, 3-[4-[[(2S)-1,4-dioxan-2-yl]methoxy]-1-methyl-2-oxo-6,7-dihydrobenzo[a]quinolizin-9-yl]-N-isopropyl-azetidine-1-carboxamide] came in with a half-maximal inhibitory concentration (IC50) of 500 to 1000 nM. In turn, `Cc1c2n(c(OC[C@@H]3COCCO3)cc1=O)CCc1cc(OC3CN(C(=O)N(C)C)C3)ccc1-2` [Compound 150, 3-[[4-[[(2S)-1,4-dioxan-2-yl]methoxy]-1-methyl-2-oxo-6,7-dihydrobenzo[a]quinolizin-9-yl]oxy]-N,N-dimethyl-azetidine-1-carboxamide] showed a 50% inhibitory concentration (IC50) of 500 to 1000 nM.

Consider `Cc1c2n(c(OC[C@@H]3COCCO3)cc1=O)CCc1cc(OC3CN(C(=O)NC(C)C)C3)ccc1-2` [Compound 151], for which the IC50 fell in the range of 500 to 1000 nM.

Consider `Cc1c2n(c(OCC3CC(C)(C)O3)cc1=O)CCc1cc(OCc3ccccc3)ccc1-2` (stereo not drawn) [Compound 152, 9-benzyloxy-4-[(4,4-dimethyloxetan-2-yl)methoxy]-1-methyl-6,7-dihydrobenzo[a]quinolizin-2-one], for which the IC50 was in the range of 100 to 500 nM. `Cc1c2n(c(OCC3(C)CCCO3)cc1=O)CCc1cc(OCc3ccccc3)ccc1-2` (stereo not drawn) [Compound 153, 9-benzyloxy-1-methyl-4-[(2-methyltetrahydrofuran-2-yl)methoxy]-6,7-dihydrobenzo[a]quinolizin-2-one] came in with an IC50 of 100 to 500 nM. `Cc1c2n(c(OCC3CCC(C)(C)O3)cc1=O)CCc1cc(OCc3ccccc3)ccc1-2` (stereo not drawn) [Compound 154, 9-benzyloxy-4-[(5,5-dimethyltetrahydrofuran-2-yl)methoxy]-1-methyl-6,7-dihydrobenzo[a]quinolizin-2-one] came in with a 50% inhibitory concentration (IC50) of 0.01 to 100 nM.

On to `Cc1c2n(c(OC[C@@H]3COCCO3)cc1=O)CCc1cc(OCC(F)(F)C(F)(F)F)ccc1-2` [Compound 155, 4-[[(2S)-1,4-dioxan-2-yl]methoxy]-1-methyl-9-(2,2,3,3,3-pentafluoropropoxy)-6,7-dihydrobenzo[a]quinolizin-2-one], for which the concentration for half-maximal inhibition (IC50) lay within 0.01 to 100 nM. Consider `Cc1c2n(c(OC[C@@H]3COCCO3)cc1=O)CCc1ccccc1-2` [Compound 156, 4-[[(2S)-1,4-dioxan-2-yl]methoxy]-1-methyl-6,7-dihydrobenzo[a]quinolizin-2-one], for which the half-inhibitory concentration (IC50) lay in the range of 100 to 500 nM. On to `Cc1c2n(c(OC[C@@H]3COCCO3)cc1=O)CCc1cc(N3CCCC3=O)ccc1-2` [Compound 157, 4-[[(2S)-1,4-dioxan-2-yl]methoxy]-1-methyl-9-(2-oxopyrrolidin-1-yl)-6,7-dihydrobenzo[a]quinolizin-2-one], for which the IC50 fell in the range of 500 to 1000 nM.

Take `Cc1c2n(c(OC[C@@H]3COCCO3)cc1=O)CCc1cc(OCCF)ccc1-2` [Compound 159, 4-[[(2S)-1,4-dioxan-2-yl]methoxy]-9-(2-fluoroethoxy)-1-methyl-6,7-dihydrobenzo[a]quinolizin-2-one]: the IC50 fell in the range of 0.01 to 100 nM.

In general, IC50 refers to the concentration at which inhibition is half-maximal. A higher IC50 goes with a need for much substance.
